The values below come from patent publication US20250186403A1 (ARIZONA BOARD OF REGENTS ON BEHALF OF THE UNIVERSITY OF …, priority 2022, published 2025).

Data set [1] in a line: Cytotoxicity (Cell Counting Kit-8). The class given is cell-based. To be noted: human, A549 cells. How it is done: (§1) FIGS. 4A, 4B, and 4C show in vitro and in vivo toxicity. […] A549 and RAW 264.7 cells were grown in 96 well plates till 70% confluent. RAW 264.7 cells were differentiated into macrophages using PMA. […] The cell viability was estimated by Cell Counting Kit-8 (GlpBio, CA, USA), and absorbance was read at 450 nm using microplate reader Synergy H1 (BioTek). CC50 was calculated by GraphPad prism. […] Abs: absorbance. […] Bodyweight and other parameters were monitored daily (Table 3).
Approximately 2×10^4 A549 cells in MEM media with 10% FBS were seeded per well of 96 well plates and incubated at 37° C. to reach 70% confluent. […] The plates were incubated for 48 h before the addition of 10 μl water-soluble […] (Cell counting kit-8, Glpbio Technology) to each well and incubated at 37° C. for 3 h.

Data set [2] is described as follows: Cytotoxicity (Cell Counting Kit-8). The class given is cell-based, murine. To be noted: mouse, PMA-differentiated RAW 264.7 macrophage cells, PMA-differentiated RAW 264.7 cells. How it is done: as §1
Cells were seeded in 96 well plates at 1.5×10^4 cells/well of 96 well plates in DMEM media and incubated at a CO2 incubator at 37° C. for 24 h. For differentiation to macrophages, the media was replaced with fresh media containing 100 nM PMA and further incubated for 48 h in a CO2 incubator.

Data set [3] deals with T1, recombinant Drosophila Hh protein (C-Hh-Y) (Drosophila melanogaster, UniProt Q02936).
T1 construct: His tag (inferred from 'purified similarly', i.e. Ni-NTA); made in house; host or cells: E. coli LMG194
T1 sequence (Q02936 258-471): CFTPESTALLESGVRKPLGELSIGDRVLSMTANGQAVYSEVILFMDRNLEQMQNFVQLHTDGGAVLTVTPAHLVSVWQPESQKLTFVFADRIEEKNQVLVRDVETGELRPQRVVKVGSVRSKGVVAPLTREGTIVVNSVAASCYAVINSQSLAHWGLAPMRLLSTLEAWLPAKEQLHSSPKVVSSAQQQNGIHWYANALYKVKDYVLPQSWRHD
In words: Hh cholesterolysis assay. The format is biochemical. As to conditions: CMN at up to 200 µM, 22 h. As to the method:
The Tm values were calculated by Thermal shift software. […] The assay was repeated three times. […]
The hedgehog FRET protein C-Hh-Y was expressed and purified similarly, except that the protein was expressed in E. coli strain LMG194, induced with arabinose at 16° C. overnight, and the purified protein was stored in a storage buffer containing 10% glycerol and 4 mM TCEP.
Hh cholesterolysis assay: Cholesterolysis assay was done as per published methodology with modifications. […] With 50 μl reaction volume, a fixed volume of DMSO or CNM with varying concentrations (final 6.25 to 200 µM) were added and incubated at RT for 30 min. Cholesterolysis was induced by adding 1 μl stock solution of cholesterol in ethanol to each tube to attain a final concentration of 200 µM. After incubating at RT for 22 h, 20 μl of the reaction mixture was mixed with an equal volume of reducing SDS-PAGE loading buffer and loaded onto the 12% SDS-PAGE gel, followed by coomassie blue staining. Gel images were taken using the ChemiDoc imaging system (Bio-Rad). Band densities were analyzed using the Image lab software and compared with Student's t-test using the GraphPad Prism software version 9.1.0.

Data set [4] has as its system Cne-H99. The experiment in a line: Efficacy in cryptococcal pulmonary infection mouse model. The class given is in vivo, Cryptococcus neoformans; BALB/c mice. How it is done:
Blood samples were collected at 0, 0.5, 1, 2, 4, 8, 12, 16, 24, and 36 h after oral gavage. […] Other PK parameters are in Table 4. The values represent means±SD. […] On day 0, mice were infected with H99 (10^7 cells/mice) intranasally or mock-infected with PBS. Mice were euthanized on day 5, and lungs were dissected out, homogenized in RPMI-1640-MOPS media, and plated onto Sabouraud dextrose agar plates containing antibiotics. Plates were incubated at 30° C. for 72 h, and colonies were counted. […] VC: Vehicle control, (90% corn oil, 10% DMSO). Dpi: Days post-infection. CFU: Colony-forming units.
Efficacy studies in the mouse: The in vivo studies were done in a mouse model with the approval of IACUC, Wadsworth Center, Albany, NY. Male and female BALB/c mice 4-5-week-old were purchased from Jackson laboratory and quarantined for a week before shifting to the experimental room. The mice were grouped randomly with a male: female ratio 1:1, ears were punched as identification code. The formulation of the compound was done by dissolving the CMN in absolute DMSO and diluted in corn oil. The formulations were done daily, just before the dosing. […] Following this, the mice were anesthetized and infected with Cne-H99 cells ([…] in 30 μl PBS/mouse) intranasally. […] Mice were weighed every day, and visual observations were made for activity, movement, coat condition, etc. Food and water were ad libitum. On day 5, the mice were anesthetized and euthanized. Lung tissues were dissected out, weighed, and homogenized in 1 ml RPMI-MOPS media using a glass homogenizer. After log dilution of the tissue suspension in RPMI-MOPS, 100 μl from each dilution was plated onto SD agar plates with antibiotics (20 μg/ml penicillin, 40 μg/ml streptomycin, […], 25 μg/ml chloramphenicol). The plates were incubated at 30° C. for 3 days before counting the colonies. The counts were normalized with the weight of the lung tissue taken during the necropsy. The fungal load in the groups was compared with Student's t-test, and p<0.05 was considered as significant.

Each structure is given as a SMILES string. Where “and” joins values, the source holds several entries; their conditions need not be identical. Identical values can stand only once.

Broadly, the CC50 is the concentration at which the toxic effect on the cells reaches its halfway point. For the molecule `CNc1ccc2oc(C[C@H]3O[C@@]4(CC[C@H]3C)O[C@H]([C@H](C)C(=O)c3ccc[nH]3)[C@H](C)C[C@H]4C)nc2c1C(=O)O` [CMN, calcimycin], the CC50 at 48 h in data set [1] was 16.3 µM and 8.6 µg/mL; in data set [2] it was 8.6 µM and 4.5 µg/mL. In data set [3], the “density of spliced product, hedgehog cholesterolysis” value was “did not change the density of spliced product”. In addition, in data set [4] (CMN 20 mg/Kg BW orally once daily for 5 days, day 5), the “reduction in fungal burden vs vehicle control” value worked out at 3 fold. The “fungal burden in the lungs” value in data set [4] (CMN 20 mg/Kg BW orally once daily for 5 days, day 5, vehicle 1.8×10^8) is 6.3×10^7 CFU/g lung tissue. Besides, in data set [4] (CMN 20 mg/kg body weight), the “reduction in lung-fungal load” value came to 60%.
